Data from patent US6121296A, “Transition-state inhibitors for nucleoside hydrolase and transferase reactions” (Albert Einstein College of Medicine of Yeshiva University, priority 1998, dated 2000).
Where two headings read alike, the source gives them in different places.

Legend:
nucleoside hydrolase = target: T1, nucleoside hydrolase (Crithidia fasciculata, UniProt Q27546); test: Inhibition of nucleoside hydrolase, inosine hydrolysis monitored at 280 nm, bis-tris pH 7.3; assay type: biochemical
T1 construct: nucleoside hydrolase was purified from C. fasciculata as described above; endogenous in cells; host or cells: Crithidia fasciculata cells grown in a 300-liter fermenter
T1 sequence (Q27546 1-315): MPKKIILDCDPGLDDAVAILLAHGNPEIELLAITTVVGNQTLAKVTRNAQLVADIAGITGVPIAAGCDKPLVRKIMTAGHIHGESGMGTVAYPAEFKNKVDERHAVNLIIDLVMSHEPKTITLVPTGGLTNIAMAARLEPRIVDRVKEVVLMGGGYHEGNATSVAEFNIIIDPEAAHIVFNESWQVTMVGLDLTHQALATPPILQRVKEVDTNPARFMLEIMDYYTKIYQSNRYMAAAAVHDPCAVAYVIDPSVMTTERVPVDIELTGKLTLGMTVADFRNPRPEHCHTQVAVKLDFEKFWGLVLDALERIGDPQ
Description: All assays were performed at 30° C. in 50 mM bis-tris buffer at pH 7.3. The substrate for all assays was inosine. Inhibition studies were performed by examining the initial velocity of the hydrolysis of inosine as a function of inosine concentration and (2S)-phenyl-(3S,4R)-dihydroxy-(5R)-hydroxymethylpyrrolidine concentration. A total of 75 velocity measurements were made.
The general protocol for measurement was as follows: various concentrations of inosine and inhibitor in the above buffer were prepared, and 1.0 mL aliquots placed in a quartz cuvette and equilibrated at 30° C. […] The decrease in absorption at 280 nm was monitored over a 10 minute period.

IU-nucleoside hydrolase [1] = target: T2, IU-nucleoside hydrolase (Crithidia fasciculata, UniProt Q27546, P2A); test: biochemical; assay type: biochemical, C. fasciculata; conditions: for inhibition pattern: minimum of four substrate and three inhibitor concentrations
T2 construct: contained the coding region for the enzyme; made in house; host or cells: E. coli BL21 (DE3)pLysS, pET3d plasmid
T2 sequence (Q27546 whole entry P2A): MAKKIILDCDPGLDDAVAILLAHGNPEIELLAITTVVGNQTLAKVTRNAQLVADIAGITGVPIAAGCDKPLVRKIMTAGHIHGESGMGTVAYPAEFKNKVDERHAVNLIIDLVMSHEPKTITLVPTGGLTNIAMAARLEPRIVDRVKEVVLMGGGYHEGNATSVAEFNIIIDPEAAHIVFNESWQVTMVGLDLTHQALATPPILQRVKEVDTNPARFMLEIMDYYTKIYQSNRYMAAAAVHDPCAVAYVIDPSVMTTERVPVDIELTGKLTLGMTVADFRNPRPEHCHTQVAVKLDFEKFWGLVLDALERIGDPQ
Source text: Enzymes. Inosine-uridine nucleoside hydrolase (IU-nucleoside hydrolase) was purified from extracts of E. coli strain BL21 (DE3)pLysS which contained the coding region for the enzyme isolated from C. fasciculata in a pET3d expression plasmid. The DNA coding for the enzyme was placed in the NcoI-BamHI site. This construct gives a Pro2Ala substitution which has no significant effect on the kinetic properties of the purified enzyme. The overexpressed enzyme was purified to apparent homogeneity as previously described (Gopaul, et al. (1996) Biochemistry 35, 5963-5970).
(§1) Enzyme Assays. Initial rate measurements were accomplished at 30° C. in reaction mixtures containing 50 mM potassium phosphate, pH 7.5, or 50 mM Hepes, pH 8.0, and nitrophenylribose or inosine as substrates (Mazella, et al. (1996) J. Am. Chem. Soc. 118, 2111-2112). At pH 7.5 the product p-nitrophenylate anion is present at a concentration which gives a millimolar extinction coefficient of 9.3 cm^-1 at 400 nm. Reaction mixtures with nitrophenylribose as substrate were initiated by the addition of enzyme, and product formation was monitored by continuous recording at 400 nm. With inosine as substrate, the conversion to hypoxanthine was monitored continuously at 280 nm (Parkin, et al. (1991) J. Biol. Chem. 266, 20658-20665). […] The remainder of the inhibitors were analyzed at one fixed substrate concentration and variable inhibitor concentrations. Inhibition constants for IAG-nucleoside hydrolase were established from full kinetic analysis with V and X as inhibitors. […] The remainder of the inhibition constants were characterized by titration of assay mixtures containing a fixed concentration of substrate with variable inhibitor concentrations. […] For Ki determination at a fixed substrate concentration, this approach assumes that substrate and inhibitor compete for the catalytic site.
Inhibitors. Iminoribitol inhibitor were synthesized and purified according to the methods of Furneaux, et al. (Tetrahedron (1997) in press), characterized by NMR, dissolved in H2 O and stored at -20° C. The compounds are enzymatically and chemically stable in H2 O and under conditions of the assay. IU-Nucleoside hydrolase is susceptible to slow-onset tight-binding inhibition under certain conditions (Horenstein & Schramm, (1993b) Biochemistry 32, 9917-9925, Boutellier, et al. (1994) Biochemistry, 33, 3994-4000). However, in the initial reaction rate conditions described here, only the rapidly reversible competition between substrate and inhibitor is being observed. Thus, the reported kinetic constants are dissociation constants which exclude slow-onset binding.

IAG-nucleoside hydrolase = IAG-nucleoside hydrolase (Trypanosoma brucei, UniProt Q57ZL6); test: Inhibition of IAG-nucleoside hydrolase, initial rates; conditions: for Km /Ki IAG-nucleoside hydrolase: comparison with inosine; for inhibition pattern: full kinetic analysis
Description: The enzyme was purified to apparent homogeneity as determined by denaturing polyacrylamide gel electrophoresis (Parkin, (1996) J. Biol. Chem. 271, 21713-21719). Some of the studies used the T. brucei brucei enzyme which was overexpressed in E. coli.
as §1, with “concentrations.” for “concentrations. Inhibition constants for IAG-nucleoside hydrolase were established from full kinetic analysis with V and X as inhibitors.”
Inhibitors. Iminoribitol inhibitor were synthesized and purified according to the methods of Furneaux, et al. (Tetrahedron (1997) in press), characterized by NMR, dissolved in H2 O and stored at -20° C.

IU-nucleoside hydrolase [2] = target: T2, IU-nucleoside hydrolase; conditions: cited from earlier work
[3] = substrate: OC[C@H]1O[C@@H](n2cnc3c(O)ncnc32)[C@H](O)[C@@H]1O; test: purified protein, by the assay type; conditions: other: inosine as substrate; 30.0 °C
Source text: The IAG-nucleoside hydrolase was purified from the blood-stream form of T. brucei brucei (ILTaT 1.1) grown in sublethally irradiated (650 rads) Sprague-Dawley rats. The enzyme was purified to apparent homogeneity as determined by denaturing polyacrylamide gel electrophoresis (Parkin, (1996) J. Biol. Chem. 271, 21713-21719). Some of the studies used the T. brucei brucei enzyme which was overexpressed in E. coli.
At pH 7.5 the product p-nitrophenylate anion is present at a concentration which gives a millimolar extinction coefficient of 9.3 cm^-1 at 400 nm. Reaction mixtures with nitrophenylribose as substrate were initiated by the addition of enzyme, and product formation was monitored by continuous recording at 400 nm. […] The remainder of the inhibitors were analyzed at one fixed substrate concentration and variable inhibitor concentrations. […] The remainder of the inhibition constants were characterized by titration of assay mixtures containing a fixed concentration of substrate with variable inhibitor concentrations. […] For Ki determination at a fixed substrate concentration, this approach assumes that substrate and inhibitor compete for the catalytic site. In these cases, data were fit to the equation: 1/v=1/kcat +(Km /kcat A)(1+I/Ki)
The compounds are enzymatically and chemically stable in H2 O and under conditions of the assay. […]

[4] = KI IU-nucleoside hydrolase, Table V

Row | Molecule | inhibition pattern (IU-nucleoside hydrolase [1]) | Ki (IAG-nucleoside hydrolase) | Km /KI IAG-nucleoside hydrolase (IAG-nucleoside hydrolase) | Ki (IU-nucleoside hydrolase [1]; [4]) | also measured
1 | OC[C@H]1N[C@@H](c2ccccc2)[C@H](O)[C@@H]1O [(2S)-phenyl-(3S,4R)-dihydroxy-(5R)-hydroxymethyl-pyrrolidine] | – | – | – | – | binding better than the substrate inosine (nucleoside hydrolase): approximately 2,000 fold; inhibition pattern (nucleoside hydrolase): competitive inhibition pattern; Ki (nucleoside hydrolase; read-out: inhibition constant): 0.15 µM
2 | OC[C@H]1NC[C@H](O)[C@@H]1O [I] | slope-linear competitive inhibitors | 44 ± 4 µM | 0.41 | – | Ki (IU-nucleoside hydrolase [2]; Table V, from Horenstein and Schramm (1993b), read-out: KI IU-nucleoside hydrolase): 4.5 ± 0.4 µM
3 | OC[C@H]1N[C@@H](c2ccccc2)[C@H](O)[C@@H]1O [V, phenyliminoribitol] | slope-linear competitive inhibitors | 180 µM | 0.1 | – | Km /Ki IAG-nucleoside hydrolase (IAG-nucleoside hydrolase; Table VI): 0.1; inhibition pattern (IAG-nucleoside hydrolase): competitive inhibition; Ki (IU-nucleoside hydrolase [2]; read-out: KI IU-nucleoside hydrolase, from Horenstein and Schramm (1993b)): 0.3 µM; Ki (IU-nucleoside hydrolase [2]; read-out: Ki IU-nucleoside hydrolase, Table VI, taken from Horenstein and Schramm (1993b)): 0.3 µM
4 | OC[C@H]1O[C@@H](c2ccccc2)[C@H](O)[C@@H]1O [XIII, 1-deoxy-1-C-phenyl-β-D-ribofuranose, reference compound] | – | > 30000 µM | – | – | Ki (IU-nucleoside hydrolase [1]; Ki IU-nucleoside hydrolase, Table VI, 58 μM nitrophenylriboside, 50 mM Hepes, pH 8.0): 600 µM; Ki (IU-nucleoside hydrolase [1]; inhibition constant IU-enzyme, text b399, unit inferred): 1600 µM; decline of affinity relative to inosine (IAG-nucleoside hydrolase): > 1670 fold; binding / inhibition at 10 mM (IAG-nucleoside hydrolase; 10 mM XIII): no binding can be detected; Km /Ki IAG-nucleoside hydrolase (IAG-nucleoside hydrolase; Table VI): < 0.0006; Ki (IAG-nucleoside hydrolase; read-out: Ki IAG-nucleoside hydrolase, Table VI, XIII: 560 μM nitrophenylriboside, 50 mM Hepes, pH 8.0, lower limit): > 30000 µM
5 | OC[C@H]1N[C@@H](c2ccc(Br)cc2)[C@H](O)[C@@H]1O [XII] | slope-linear competitive inhibitors | 113 ± 5 µM | 0.16 | 0.028 ± 0.004 µM | –
6 | OC[C@H]1N[C@@H](c2ccc(Cl)cc2)[C@H](O)[C@@H]1O [XI] | slope-linear competitive inhibitors | 190 ± 8 µM | 0.095 | 0.03 ± 0.0014 µM | –
7 | Nc1ccc([C@@H]2N[C@H](CO)[C@@H](O)[C@H]2O)cc1 [X] | – | 12 ± 1 µM | 1.5 | 0.03 ± 0.002 µM | binding compared to inosine (IAG-nucleoside hydrolase): binds as well as the preferred substrate, inosine; inhibition pattern (IAG-nucleoside hydrolase): competitive inhibition
8 | IAG-nucleoside hydrolase (Trypanosoma brucei brucei TREU927) (protein) MAKTVILDHDGNKDDFVAMILLLSNPKKVNLIGCICTDADCFVENGFDVTGKIMCAMHRLIKTPLFPIGKSTATAVNAFPTEWRFSAKNLDDMPFLNIVEDVALWEKLKPENEAHNGQQLLADLVMKSKEKVTVCVTGPLSNMAWCIEKYGEAFTSKVEECVIMGGAVDVGGNVFLPTTDGSAEWNIYWDPPAAKKVLCCPNIRCVLFSLDATNTVPVRSVDVKGFGAQNQYLLSQMVGTMWAMSTHEEILRDGDAYYAWDALTAAYILEPTIATLEPVALDVDVSKGKSEGRTPRASGEGKPCVHVARNPSKQMFHDLVFASTRVC | – | – | – | – | Km [3]: 18 ± 1 µM
